In US12252524B2, “GIP/GLP1 co-agonist compounds” (Eli Lilly and Company, priority 2018, dated 2025):
Numbered stars: 1 amine (or outer) side, 2 acyl side, 3 side chain; on linkers, the order of the positions; unused ones are H or OH. Square brackets hold non-standard residues; d marks the D form. Side chains are listed from the residue outwards. Peptide text beside a SMILES is read from it. * marks the point of attachment. C20 diacid = O=C(O)CCCCCCCCCCCCCCCCCCC(=O)*; γGlu = O=C(O)[C@H](CCC(=O)[*:2])N[*:1]; AEEA = NCCOCCOCC(=O)O; Aib = CC(C)(N)C(=O)O

Columns and labels:
[1] = biological target: human GLP-1R (Homo sapiens, UniProt P43220); test: [125I]-GLP-1 binding (SPA), human GLP-1 receptor; design: expressed in transfected cells; crude membranes; settings: read-out: hGLP1R Ki, (nM) (SEM, n)
human GLP-1R, sequence (P43220 24-463): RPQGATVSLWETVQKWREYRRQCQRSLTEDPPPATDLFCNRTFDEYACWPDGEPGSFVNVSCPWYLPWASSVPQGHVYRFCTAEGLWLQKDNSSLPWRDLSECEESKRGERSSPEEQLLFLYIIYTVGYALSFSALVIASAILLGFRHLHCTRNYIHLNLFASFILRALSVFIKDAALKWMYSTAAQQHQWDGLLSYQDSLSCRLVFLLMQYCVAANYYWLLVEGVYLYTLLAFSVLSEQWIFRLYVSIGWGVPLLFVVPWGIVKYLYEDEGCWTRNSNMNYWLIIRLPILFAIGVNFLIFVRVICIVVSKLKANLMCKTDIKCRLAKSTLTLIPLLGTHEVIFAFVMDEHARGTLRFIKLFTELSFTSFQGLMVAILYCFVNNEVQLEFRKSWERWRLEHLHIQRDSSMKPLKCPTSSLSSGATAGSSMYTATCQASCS
Procedure, shortened: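 Assay buffer: HEPES 25 mM, pH 7.4, CaCl2 2.5 mM, MgCl2 1 mM, with EDTA-free protease inhibitors. Receptor came from crude cell membranes prepared by homogenization and centrifugation at 4° C. IC50s came from four-parameter fits (maximum, minimum, IC50, Hill slope) and were expressed as Ki geometric means with SEM.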

[2] = biological target: T1, human Gcg receptor (Homo sapiens, UniProt P47871); test: [125I]-Glucagon binding (SPA), human Gcg receptor; settings: read-out: hGLcgR Ki, nM (SEM, n)
T1 construct: expressed in transfected cells; crude membranes
T1 sequence (P47871 26-477): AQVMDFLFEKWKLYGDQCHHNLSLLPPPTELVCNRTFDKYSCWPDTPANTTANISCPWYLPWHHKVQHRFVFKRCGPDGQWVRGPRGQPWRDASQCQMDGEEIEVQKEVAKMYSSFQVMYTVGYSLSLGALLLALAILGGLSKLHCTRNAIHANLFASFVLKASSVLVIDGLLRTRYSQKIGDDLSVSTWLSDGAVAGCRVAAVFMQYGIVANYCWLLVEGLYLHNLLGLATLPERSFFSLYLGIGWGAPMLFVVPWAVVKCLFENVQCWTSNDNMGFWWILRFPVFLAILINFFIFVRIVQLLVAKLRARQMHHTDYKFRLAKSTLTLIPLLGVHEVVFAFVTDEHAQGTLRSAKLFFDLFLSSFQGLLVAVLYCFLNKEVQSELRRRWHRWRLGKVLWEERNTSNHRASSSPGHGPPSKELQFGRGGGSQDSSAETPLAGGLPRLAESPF
Procedure, shortened: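 Crude membranes from cells expressing the receptor, prepared by hypotonic lysis in 50 mM Tris HCl pH 7.5 with protease inhibitors, homogenization and differential centrifugation, were used in a WGA-bead SPA. Binding buffer: 25 mM HEPES pH 7.4, 2.5 mM CaCl2, 1 mM MgCl2, bacitracin, Tween-20.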

[3] = biological target: T2, human GIP receptor (Homo sapiens, UniProt P48546); test: [125I]-GIP binding (SPA), human GIP receptor; settings: read-out: hGIPR Ki, nM (SEM, n)
T2 construct: expressed in transfected cells; crude membranes
T2 sequence (P48546 22-466): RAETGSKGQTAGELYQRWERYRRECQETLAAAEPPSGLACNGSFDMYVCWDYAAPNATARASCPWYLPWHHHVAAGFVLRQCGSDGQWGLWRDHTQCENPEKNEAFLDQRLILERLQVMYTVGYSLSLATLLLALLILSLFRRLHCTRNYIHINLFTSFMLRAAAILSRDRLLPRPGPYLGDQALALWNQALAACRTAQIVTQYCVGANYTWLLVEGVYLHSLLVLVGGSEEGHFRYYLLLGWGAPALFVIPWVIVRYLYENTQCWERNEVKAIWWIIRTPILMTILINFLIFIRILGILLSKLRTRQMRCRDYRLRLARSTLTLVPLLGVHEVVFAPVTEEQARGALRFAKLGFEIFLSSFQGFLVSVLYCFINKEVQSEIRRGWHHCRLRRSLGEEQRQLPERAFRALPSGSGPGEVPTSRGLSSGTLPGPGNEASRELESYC

[4] = biological target: T3, gastric inhibitory peptide receptor (GIPR) (Homo sapiens, UniProt P48546); test: cAMP pharmacological functional assay in presence of casein, hGIPR; type: cell-based; settings: HEK293 cells expressing hGIPR, 0.1% Casein, geometric mean; read-out: hGIPR cAMP Rel EC50 nM (SEM, n)
T3 sequence (P48546 22-466): T2 sequence (P48546 22-466)

[5] = biological target: human GLP-1 receptor (GLP-1R) (Homo sapiens, UniProt P43220); test: cAMP pharmacological functional assay in presence of casein, hGLP-1R; type: cell-based; settings: HEK293 cells expressing hGLP-1R, 0.1% Casein, geometric mean; read-out: hGLP1R cAMP Rel EC50 nM (SEM, n)
human GLP-1 receptor (GLP-1R), sequence (P43220 24-463): as the sequence (P43220 24-463) above

Structure (SMILES)	Ki [1]	Ki [2]	Ki [3]	EC50 [4]	EC50 [5]
CC[C@H](C)[C@H](NC(=O)[C@H](CCCCN)NC(=O)[C@H](CC(=O)O)NC(=O)[C@H](CC(C)C)NC(=O)[C@H](CC(C)C)NC(=O)[C@@H](NC(=O)[C@H](CO)NC(=O)[C@H](Cc1ccc(O)cc1)NC(=O)[C@H](CC(=O)O)NC(=O)[C@H](CO)NC(=O)[C@@H](NC(=O)[C@H](Cc1ccccc1)NC(=O)[C@@H](NC(=O)CNC(=O)[C@H](CCC(=O)O)NC(=O)C(C)(C)NC(=O)[C@@H](N)Cc1ccc(O)cc1)[C@@H](C)O)[C@@H](C)O)[C@@H](C)CC)C(=O)N[C@@H](C)C(=O)N[C@@H](CCCCNC(=O)COCCOCCNC(=O)COCCOCCNC(=O)CC[C@H](NC(=O)CCCCCCCCCCCCCCCCCCC(=O)O)C(=O)O)C(=O)NC(C)(C)C(=O)N[C@@H](C)C(=O)N[C@@H](Cc1ccccc1)C(=O)N[C@H](C(=O)N[C@@H](CCC(=O)O)C(=O)N[C@@H](Cc1ccc(O)cc1)C(=O)N[C@@H](CC(C)C)C(=O)N[C@H](C(=O)N[C@@H](CCC(=O)O)C(=O)NCC(=O)NCC(=O)N1CCC[C@H]1C(=O)N[C@@H](CO)C(=O)N[C@@H](CO)C(=O)NCC(=O)N[C@@H](C)C(=O)N1CCC[C@H]1C(=O)N1CCC[C@H]1C(=O)N1CCC[C@H]1C(=O)N[C@@H](CO)C(N)=O)[C@@H](C)CC)[C@@H](C)CC [Example 31] (H-Y[Aib]EGTFTSDYSILLDKIAK([AEEA-AEEA-γGlu-C20 diacid])[Aib]AFIEYLIEGGPSSGAPPPS-NH2)	6.58 nM	290 nM	0.0275 nM	0.388 nM	0.891 nM
CC[C@H](C)[C@H](NC(=O)[C@H](CCCCN)NC(=O)[C@H](CC(=O)O)NC(=O)[C@H](CC(C)C)NC(=O)[C@H](CC(C)C)NC(=O)[C@@H](NC(=O)[C@H](CO)NC(=O)[C@H](Cc1ccc(O)cc1)NC(=O)[C@H](CC(=O)O)NC(=O)[C@H](CO)NC(=O)[C@@H](NC(=O)[C@H](Cc1ccccc1)NC(=O)[C@@H](NC(=O)CNC(=O)[C@H](CCC(=O)O)NC(=O)C(C)(C)NC(=O)[C@@H](N)Cc1ccc(O)cc1)[C@@H](C)O)[C@@H](C)O)[C@@H](C)CC)C(=O)N[C@@H](C)C(=O)N[C@@H](CCC(N)=O)C(=O)NC(C)(C)C(=O)N[C@@H](CCCCNC(=O)COCCOCCNC(=O)COCCOCCNC(=O)CC[C@H](NC(=O)CCCCCCCCCCCCCCCCCCC(=O)O)C(=O)O)C(=O)N[C@@H](Cc1ccccc1)C(=O)N[C@H](C(=O)N[C@@H](CCC(=O)O)C(=O)N[C@@H](Cc1ccc(O)cc1)C(=O)N[C@@H](CC(C)C)C(=O)N[C@H](C(=O)N[C@@H](CCC(=O)O)C(=O)NCC(=O)NCC(=O)N1CCC[C@H]1C(=O)N[C@@H](CO)C(=O)N[C@@H](CO)C(=O)NCC(=O)N[C@@H](C)C(=O)N1CCC[C@H]1C(=O)N1CCC[C@H]1C(=O)N1CCC[C@H]1C(=O)N[C@@H](CO)C(N)=O)[C@@H](C)CC)[C@@H](C)CC [Example 32] (H-Y[Aib]EGTFTSDYSILLDKIAQ[Aib]K([AEEA-AEEA-γGlu-C20 diacid])FIEYLIEGGPSSGAPPPS-NH2)	3.96 nM	44.7 nM	0.0205 nM	0.179 nM	0.498 nM
CC[C@H](C)[C@H](NC(=O)[C@H](CCCCN)NC(=O)[C@H](CC(=O)O)NC(=O)[C@H](CC(C)C)NC(=O)[C@H](CC(C)C)NC(=O)[C@@H](NC(=O)[C@H](CO)NC(=O)[C@H](Cc1ccc(O)cc1)NC(=O)[C@H](CC(=O)O)NC(=O)[C@H](CO)NC(=O)[C@@H](NC(=O)[C@H](Cc1ccccc1)NC(=O)[C@@H](NC(=O)CNC(=O)[C@H](CCC(=O)O)NC(=O)C(C)(C)NC(=O)[C@@H](N)Cc1ccc(O)cc1)[C@@H](C)O)[C@@H](C)O)[C@@H](C)CC)C(=O)N[C@@H](C)C(=O)N[C@@H](CCC(N)=O)C(=O)NC(C)(C)C(=O)N[C@@H](C)C(=O)N[C@@H](Cc1ccccc1)C(=O)N[C@@H](CCCCNC(=O)COCCOCCNC(=O)COCCOCCNC(=O)CC[C@H](NC(=O)CCCCCCCCCCCCCCCCCCC(=O)O)C(=O)O)C(=O)N[C@@H](CCC(=O)O)C(=O)N[C@@H](Cc1ccc(O)cc1)C(=O)N[C@@H](CC(C)C)C(=O)N[C@H](C(=O)N[C@@H](CCC(=O)O)C(=O)NCC(=O)NCC(=O)N1CCC[C@H]1C(=O)N[C@@H](CO)C(=O)N[C@@H](CO)C(=O)NCC(=O)N[C@@H](C)C(=O)N1CCC[C@H]1C(=O)N1CCC[C@H]1C(=O)N1CCC[C@H]1C(=O)N[C@@H](CO)C(N)=O)[C@@H](C)CC [Example 33] (H-Y[Aib]EGTFTSDYSILLDKIAQ[Aib]AFK([AEEA-AEEA-γGlu-C20 diacid])EYLIEGGPSSGAPPPS-NH2; N-terminus assumed)	361 nM	> 979 nM	6.4 nM	63.3 nM	251 nM
CC[C@H](C)[C@H](NC(=O)[C@H](CCCCN)NC(=O)[C@H](CC(=O)O)NC(=O)[C@H](CC(C)C)NC(=O)[C@H](CC(C)C)NC(=O)[C@@H](NC(=O)[C@H](CO)NC(=O)[C@H](Cc1ccc(O)cc1)NC(=O)[C@H](CC(=O)O)NC(=O)[C@H](CO)NC(=O)[C@@H](NC(=O)[C@H](Cc1ccccc1)NC(=O)[C@@H](NC(=O)CNC(=O)[C@H](CCC(=O)O)NC(=O)C(C)(C)NC(=O)[C@@H](N)Cc1ccc(O)cc1)[C@@H](C)O)[C@@H](C)O)[C@@H](C)CC)C(=O)N[C@@H](C)C(=O)N[C@@H](CCC(N)=O)C(=O)NC(C)(C)C(=O)N[C@@H](C)C(=O)N[C@@H](Cc1ccccc1)C(=O)N[C@H](C(=O)N[C@@H](CCCCNC(=O)COCCOCCNC(=O)COCCOCCNC(=O)CC[C@H](NC(=O)CCCCCCCCCCCCCCCCCCC(=O)O)C(=O)O)C(=O)N[C@@H](Cc1ccc(O)cc1)C(=O)N[C@@H](CC(C)C)C(=O)N[C@H](C(=O)N[C@@H](CCC(=O)O)C(=O)NCC(=O)NCC(=O)N1CCC[C@H]1C(=O)N[C@@H](CO)C(=O)N[C@@H](CO)C(=O)NCC(=O)N[C@@H](C)C(=O)N1CCC[C@H]1C(=O)N1CCC[C@H]1C(=O)N1CCC[C@H]1C(=O)N[C@@H](CO)C(N)=O)[C@@H](C)CC)[C@@H](C)CC [Example 34] (H-Y[Aib]EGTFTSDYSILLDKIAQ[Aib]AFIK([AEEA-AEEA-γGlu-C20 diacid])YLIEGGPSSGAPPPS-NH2)	3.41 nM	134 nM	0.0467 nM	0.36 nM	1.56 nM
CC[C@H](C)[C@H](NC(=O)[C@H](CCCCN)NC(=O)[C@H](CC(=O)O)NC(=O)[C@H](CC(C)C)NC(=O)[C@H](CC(C)C)NC(=O)[C@@H](NC(=O)[C@H](CO)NC(=O)[C@H](Cc1ccc(O)cc1)NC(=O)[C@H](CC(=O)O)NC(=O)[C@H](CO)NC(=O)[C@@H](NC(=O)[C@H](Cc1ccccc1)NC(=O)[C@@H](NC(=O)CNC(=O)[C@H](CCC(=O)O)NC(=O)C(C)(C)NC(=O)[C@@H](N)Cc1ccc(O)cc1)[C@@H](C)O)[C@@H](C)O)[C@@H](C)CC)C(=O)N[C@@H](C)C(=O)N[C@@H](CCC(N)=O)C(=O)NC(C)(C)C(=O)N[C@@H](C)C(=O)N[C@@H](Cc1ccccc1)C(=O)N[C@H](C(=O)N[C@@H](CCC(=O)O)C(=O)N[C@@H](Cc1ccc(O)cc1)C(=O)N[C@@H](CCCCNC(=O)COCCOCCNC(=O)COCCOCCNC(=O)CC[C@H](NC(=O)CCCCCCCCCCCCCCCCCCC(=O)O)C(=O)O)C(=O)N[C@H](C(=O)N[C@@H](CCC(=O)O)C(=O)NCC(=O)NCC(=O)N1CCC[C@H]1C(=O)N[C@@H](CO)C(=O)N[C@@H](CO)C(=O)NCC(=O)N[C@@H](C)C(=O)N1CCC[C@H]1C(=O)N1CCC[C@H]1C(=O)N1CCC[C@H]1C(=O)N[C@@H](CO)C(N)=O)[C@@H](C)CC)[C@@H](C)CC [Example 35] (H-Y[Aib]EGTFTSDYSILLDKIAQ[Aib]AFIEYK([AEEA-AEEA-γGlu-C20 diacid])IEGGPSSGAPPPS-NH2)	54.6 nM	> 964 nM	0.0358 nM	0.0905 nM	8.38 nM
